Key:
Assay type in all cases: biochemical
[1] = target: Syk (Homo sapiens, UniProt P43405); assay: Syk kinase mode of inhibition studies (Caliper LC3000)
Description: (§1) Syk kinase mode of inhibition studies, including parameters described in Fig 1, were conducted on the LC3000 platform by Caliper Life Sciences (Hopkinton, MA) according to standard protocols developed by the supplier. […] Non-kinase enzyme assays and GPCR, ion channel, and transporter binding assays were run by CEREP (France). Non-GLP manual patch clamp hERG assays were run by ChanTest (Cleveland, Ohio). Vivid® Assay kits (Life Technologies) were used to measure the cytochrome P450 inhibition of the compound against CYP3A, CYP2C9, CYP2C19, CYP2D6, and CYP1A2, as described.

[2] = target: T1, MEK2_h (Homo sapiens, UniProt P36507); assay: SelectScreen kinase assay; settings: 100 µM ATP, read-out: % control
T1 construct: purchased Life Technologies (Invitrogen) SelectScreen, Z'-LYTE / Adapta
T1 sequence (P36507 whole entry): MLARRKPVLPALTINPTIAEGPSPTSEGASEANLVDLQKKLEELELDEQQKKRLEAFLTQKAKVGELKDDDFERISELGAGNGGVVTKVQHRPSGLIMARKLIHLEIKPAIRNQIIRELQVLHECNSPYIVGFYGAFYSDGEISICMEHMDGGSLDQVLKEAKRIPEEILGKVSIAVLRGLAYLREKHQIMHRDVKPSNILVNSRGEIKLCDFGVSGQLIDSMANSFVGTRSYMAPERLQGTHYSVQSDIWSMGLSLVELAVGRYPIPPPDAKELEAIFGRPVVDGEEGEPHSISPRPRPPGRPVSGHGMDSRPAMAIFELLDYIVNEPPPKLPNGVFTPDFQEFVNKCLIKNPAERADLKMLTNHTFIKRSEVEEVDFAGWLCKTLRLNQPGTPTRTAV

[3] = target: T2, EphA3_h (Homo sapiens, UniProt P29320); assay: SelectScreen kinase assay; settings: KM ATP, read-out: % control
T2 construct: purchased Life Technologies (Invitrogen) SelectScreen, Z'-LYTE / Adapta
Description: as §1
(§2) Kinase activity was measured using either the Z’-Lyte® or the Adapta® protocols as part of the SelectScreen™ profiling service offered at Life Technologies (Grand Island, NY). For the single point measurements (Part A), CC-509 was kept constant at 3 µM while ATP concentrations [ATP] used were at the KM for ATP (KM ATP) for that specific enyzme, at 10 or 100 µM ATP (10 ATP or 100 ATP, respectively), as indicated. Values expressed as percent control (% control) relative to DMSO-only wells (uninhibited, 100%).

[4] = target: T3, PI3K-C2 alpha_h (Homo sapiens, UniProt O00443); assay: SelectScreen kinase assay; settings: KM ATP, read-out: % control
T3 construct: purchased Life Technologies (Invitrogen) SelectScreen, Z'-LYTE / Adapta
Description: as §1, §2

[5] = target: T4, PI3K-C2 beta_h (Homo sapiens, UniProt O00750); assay: SelectScreen kinase assay; settings: 10 µM ATP, read-out: % control
T4 construct: purchased Life Technologies (Invitrogen) SelectScreen, Z'-LYTE / Adapta
Description: as §1, §2

[6] = target: T5, PI3_Kinase-alpha_h (Homo sapiens, UniProt P42336); assay: SelectScreen kinase assay; settings: KM ATP, read-out: % control
T5 construct: purchased Life Technologies (Invitrogen) SelectScreen, Z'-LYTE / Adapta
T5 sequence (P42336 whole entry): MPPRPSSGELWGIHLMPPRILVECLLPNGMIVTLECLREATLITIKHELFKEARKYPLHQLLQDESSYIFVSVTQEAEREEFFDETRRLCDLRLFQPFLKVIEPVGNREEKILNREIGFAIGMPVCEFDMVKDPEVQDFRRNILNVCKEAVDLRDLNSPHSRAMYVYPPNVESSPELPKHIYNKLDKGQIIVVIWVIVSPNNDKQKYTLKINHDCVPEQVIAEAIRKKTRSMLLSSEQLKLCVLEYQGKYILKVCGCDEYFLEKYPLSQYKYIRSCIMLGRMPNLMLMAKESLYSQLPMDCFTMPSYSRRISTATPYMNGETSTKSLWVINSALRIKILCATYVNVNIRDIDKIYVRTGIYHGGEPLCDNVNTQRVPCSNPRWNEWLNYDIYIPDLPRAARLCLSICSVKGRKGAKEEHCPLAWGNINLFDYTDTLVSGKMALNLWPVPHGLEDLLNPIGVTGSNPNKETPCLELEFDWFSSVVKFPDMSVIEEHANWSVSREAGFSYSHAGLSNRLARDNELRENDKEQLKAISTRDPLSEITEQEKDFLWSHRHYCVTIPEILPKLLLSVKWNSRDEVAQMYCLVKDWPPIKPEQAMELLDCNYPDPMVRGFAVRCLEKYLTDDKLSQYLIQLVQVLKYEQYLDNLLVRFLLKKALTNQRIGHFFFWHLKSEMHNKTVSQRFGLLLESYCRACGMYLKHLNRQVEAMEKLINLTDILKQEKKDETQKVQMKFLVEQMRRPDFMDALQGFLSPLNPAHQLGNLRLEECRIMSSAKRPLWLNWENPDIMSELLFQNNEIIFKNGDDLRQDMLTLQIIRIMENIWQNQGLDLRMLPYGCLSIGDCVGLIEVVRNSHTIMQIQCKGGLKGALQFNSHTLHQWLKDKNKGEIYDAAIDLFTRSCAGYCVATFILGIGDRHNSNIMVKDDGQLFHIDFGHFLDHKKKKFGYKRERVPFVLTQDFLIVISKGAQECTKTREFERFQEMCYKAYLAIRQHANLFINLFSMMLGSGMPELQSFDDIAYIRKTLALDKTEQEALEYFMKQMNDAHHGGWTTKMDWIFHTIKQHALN
T5 sequence (P27986 whole entry partner): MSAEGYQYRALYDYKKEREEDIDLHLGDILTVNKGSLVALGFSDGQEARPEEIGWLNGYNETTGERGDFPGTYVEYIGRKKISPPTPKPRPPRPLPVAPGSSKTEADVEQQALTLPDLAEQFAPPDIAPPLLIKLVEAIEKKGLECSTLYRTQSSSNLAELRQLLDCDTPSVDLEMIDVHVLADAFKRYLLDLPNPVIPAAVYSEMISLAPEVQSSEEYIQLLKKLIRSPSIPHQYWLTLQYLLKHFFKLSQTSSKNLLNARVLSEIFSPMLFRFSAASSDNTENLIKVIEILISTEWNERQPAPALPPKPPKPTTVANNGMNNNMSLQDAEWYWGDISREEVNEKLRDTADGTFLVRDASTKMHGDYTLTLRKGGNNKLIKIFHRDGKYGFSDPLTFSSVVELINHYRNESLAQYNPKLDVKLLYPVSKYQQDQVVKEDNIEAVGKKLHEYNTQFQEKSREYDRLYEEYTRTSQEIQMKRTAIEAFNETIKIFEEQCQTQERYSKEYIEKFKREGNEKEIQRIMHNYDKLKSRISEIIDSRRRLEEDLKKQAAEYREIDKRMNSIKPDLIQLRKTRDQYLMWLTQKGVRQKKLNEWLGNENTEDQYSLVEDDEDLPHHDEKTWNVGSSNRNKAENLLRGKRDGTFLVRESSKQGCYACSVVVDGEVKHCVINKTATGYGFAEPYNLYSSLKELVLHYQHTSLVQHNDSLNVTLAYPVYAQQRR
Description: as §1, §2

[7] = target: T6, PI3_Kinase-delta_h (Homo sapiens, UniProt O00329); assay: SelectScreen kinase assay; settings: KM ATP, read-out: % control
T6 construct: purchased Life Technologies (Invitrogen) SelectScreen, Z'-LYTE / Adapta
Description: as §1, §2

[8] = target: T7, PI3_Kinase-gamma_h (Homo sapiens, UniProt P48736); assay: SelectScreen kinase assay; settings: KM ATP, read-out: % control
T7 construct: purchased Life Technologies (Invitrogen) SelectScreen, Z'-LYTE / Adapta
Description: as §1, §2

[9] = target: T8, PI4K-alpha_h (Homo sapiens, UniProt P42356); assay: SelectScreen kinase assay; settings: 10 µM ATP, read-out: % control
T8 construct: purchased Life Technologies (Invitrogen) SelectScreen, Z'-LYTE / Adapta
Description: as §1, §2

[10] = target: T9, PI4K-beta_h (Homo sapiens, UniProt Q9UBF8); assay: SelectScreen kinase assay; settings: KM ATP, read-out: % control
T9 construct: purchased Life Technologies (Invitrogen) SelectScreen, Z'-LYTE / Adapta
T9 sequence (Q9UBF8 whole entry): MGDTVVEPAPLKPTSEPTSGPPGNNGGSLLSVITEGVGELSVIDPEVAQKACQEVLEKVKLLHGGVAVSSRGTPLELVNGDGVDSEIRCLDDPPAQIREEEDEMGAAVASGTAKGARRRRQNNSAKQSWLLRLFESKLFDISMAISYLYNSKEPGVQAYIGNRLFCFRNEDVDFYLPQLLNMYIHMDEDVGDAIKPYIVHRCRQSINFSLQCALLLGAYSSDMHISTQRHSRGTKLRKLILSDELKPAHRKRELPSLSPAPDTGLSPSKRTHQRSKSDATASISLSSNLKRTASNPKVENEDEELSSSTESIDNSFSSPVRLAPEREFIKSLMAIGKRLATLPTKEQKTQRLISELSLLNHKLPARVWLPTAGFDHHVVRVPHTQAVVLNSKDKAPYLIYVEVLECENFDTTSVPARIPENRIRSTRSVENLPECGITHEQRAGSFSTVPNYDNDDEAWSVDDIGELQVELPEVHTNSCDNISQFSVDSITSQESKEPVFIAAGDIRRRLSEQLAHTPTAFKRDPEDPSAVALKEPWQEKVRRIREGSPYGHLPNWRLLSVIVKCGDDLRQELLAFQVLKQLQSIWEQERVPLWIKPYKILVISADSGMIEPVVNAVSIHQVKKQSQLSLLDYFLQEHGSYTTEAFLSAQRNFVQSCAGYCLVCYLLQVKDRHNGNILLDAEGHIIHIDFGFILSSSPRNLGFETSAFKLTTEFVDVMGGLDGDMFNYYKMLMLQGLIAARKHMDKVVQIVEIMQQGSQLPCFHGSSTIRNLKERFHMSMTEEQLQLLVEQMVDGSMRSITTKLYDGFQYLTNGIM
Description: as §1, §2

[11] = target: T10, PIK3C3_h (Homo sapiens, UniProt Q8NEB9); assay: SelectScreen kinase assay; settings: KM ATP, read-out: % control
T10 construct: purchased Life Technologies (Invitrogen) SelectScreen, Z'-LYTE / Adapta
T10 sequence (Q8NEB9 whole entry): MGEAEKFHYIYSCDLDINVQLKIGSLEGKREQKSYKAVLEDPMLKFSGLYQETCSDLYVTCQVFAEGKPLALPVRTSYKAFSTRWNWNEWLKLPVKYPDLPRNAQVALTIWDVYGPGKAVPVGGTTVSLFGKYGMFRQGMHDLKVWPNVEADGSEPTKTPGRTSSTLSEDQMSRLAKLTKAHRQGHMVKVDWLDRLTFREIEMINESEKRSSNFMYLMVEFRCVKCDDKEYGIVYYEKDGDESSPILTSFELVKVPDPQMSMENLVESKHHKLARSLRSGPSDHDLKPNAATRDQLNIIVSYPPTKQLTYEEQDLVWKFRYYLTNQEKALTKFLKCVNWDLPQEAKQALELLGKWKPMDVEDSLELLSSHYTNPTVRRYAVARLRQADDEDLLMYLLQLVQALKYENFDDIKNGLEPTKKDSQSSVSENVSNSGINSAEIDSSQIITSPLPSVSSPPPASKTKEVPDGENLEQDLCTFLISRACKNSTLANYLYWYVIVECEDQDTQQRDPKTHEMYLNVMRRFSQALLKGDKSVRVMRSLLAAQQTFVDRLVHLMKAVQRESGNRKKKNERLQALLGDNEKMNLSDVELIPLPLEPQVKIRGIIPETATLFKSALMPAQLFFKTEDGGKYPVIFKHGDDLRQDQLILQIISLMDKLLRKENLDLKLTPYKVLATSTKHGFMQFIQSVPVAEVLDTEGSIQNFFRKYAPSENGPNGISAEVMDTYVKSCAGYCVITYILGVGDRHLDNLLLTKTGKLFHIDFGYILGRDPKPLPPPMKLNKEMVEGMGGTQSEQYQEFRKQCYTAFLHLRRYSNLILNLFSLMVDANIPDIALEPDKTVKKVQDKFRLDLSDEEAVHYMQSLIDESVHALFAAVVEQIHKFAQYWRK
Description: as §1, §2

[12] = target: T11, SPHK1_h (Homo sapiens, UniProt Q9NYA1); assay: SelectScreen kinase assay; settings: KM ATP, read-out: % control
T11 construct: purchased Life Technologies (Invitrogen) SelectScreen, Z'-LYTE / Adapta
T11 sequence (Q9NYA1 whole entry): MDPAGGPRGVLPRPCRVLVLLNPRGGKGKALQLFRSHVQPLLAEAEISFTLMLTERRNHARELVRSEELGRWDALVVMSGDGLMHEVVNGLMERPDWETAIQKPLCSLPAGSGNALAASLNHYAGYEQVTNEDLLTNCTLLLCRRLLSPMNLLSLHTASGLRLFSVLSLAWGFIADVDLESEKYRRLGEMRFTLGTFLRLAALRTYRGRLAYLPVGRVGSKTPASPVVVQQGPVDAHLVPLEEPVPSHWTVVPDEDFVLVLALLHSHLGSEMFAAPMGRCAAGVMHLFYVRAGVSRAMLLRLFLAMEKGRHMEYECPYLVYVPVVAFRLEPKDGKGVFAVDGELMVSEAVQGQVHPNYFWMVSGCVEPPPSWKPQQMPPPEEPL
Description: as §1, §2

[13] = target: T12, SPHK2_h (Homo sapiens, UniProt Q9NRA0); assay: SelectScreen kinase assay; settings: 10 µM ATP, read-out: % control
T12 construct: purchased Life Technologies (Invitrogen) SelectScreen, Z'-LYTE / Adapta
Description: as §1, §2

[14] = target: T13, PKC-eta_h (Homo sapiens, UniProt P24723); assay: SelectScreen kinase assay; settings: KM ATP, read-out: % control
T13 construct: purchased Life Technologies (Invitrogen) SelectScreen, Z'-LYTE / Adapta
T13 sequence (P24723 whole entry): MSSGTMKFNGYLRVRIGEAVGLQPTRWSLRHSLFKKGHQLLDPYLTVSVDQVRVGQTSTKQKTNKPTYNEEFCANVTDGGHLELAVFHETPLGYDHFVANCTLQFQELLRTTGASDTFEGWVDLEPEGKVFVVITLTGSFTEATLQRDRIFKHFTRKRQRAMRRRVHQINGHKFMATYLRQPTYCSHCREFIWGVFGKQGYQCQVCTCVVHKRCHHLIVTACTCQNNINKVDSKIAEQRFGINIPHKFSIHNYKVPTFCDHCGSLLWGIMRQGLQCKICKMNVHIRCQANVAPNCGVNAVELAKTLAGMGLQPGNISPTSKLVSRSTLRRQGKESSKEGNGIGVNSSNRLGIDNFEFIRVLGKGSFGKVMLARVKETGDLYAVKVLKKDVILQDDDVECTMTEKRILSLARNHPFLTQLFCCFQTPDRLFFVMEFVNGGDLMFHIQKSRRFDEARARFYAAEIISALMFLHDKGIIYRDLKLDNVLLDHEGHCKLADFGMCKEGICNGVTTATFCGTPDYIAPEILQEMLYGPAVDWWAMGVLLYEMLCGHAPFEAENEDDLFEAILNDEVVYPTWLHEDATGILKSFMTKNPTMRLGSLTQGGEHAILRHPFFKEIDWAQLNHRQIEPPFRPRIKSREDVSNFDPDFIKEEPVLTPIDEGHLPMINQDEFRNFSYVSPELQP

[15] = target: T14, RetA (Homo sapiens, UniProt P07949); assay: Ret A HTRF assay; settings: in-house, mean ± SD
T14 construct: purchased Life Technologies PV3819
Description: CC-509 was prepared at a concentration of 1.5 mM in DMSO followed by 3-fold dilutions in Greiner […] polypropylene plates. A 1:4 dilution of compounds by 8 μL/well transfer from the polypropylene plates to 24 μL/well Assay Buffer (50 mM HEPES pH 7.6, 1 mM DTT, 10 mM MgCl2, 0.01% Triton X-100, 0.01% BSA and 0.1 mM EDTA) in Costar 3710 384 well black plates was then performed. Kinases (13 μL/well of 31 ng/ml RetA (Life Technologies, Grand Island, NY PV3819) in Assay Buffer) or Assay Buffer only (background controls) were added to Costar 3710 384-well black plates for the HTRF assays and compound (2 μL/ well) was added from the 1:4 dilution plate. […] Time resolved fluorescence was read in assay plates on a PerkinElmer EnVision. […] The IC50 value was determined as described in the data fitting section below.
For the TEL-Syk assay, the intensity values for the 700 and 800 channel were exported as text files in ActivityBase (IDBS, Guildford, UK) to derive the ratios that reflect kinase activity. […] For the JAK2 HEL and Ramos NFAT β-lactamase assays, the fluorescence values obtained at 460 nm and 530 nm were exported into ActivityBase to calculate response ratios. […] Evans blue dye extravasation was expressed as mean ± SEM and % inhibition for the test article groups was normalized to the cromolyn positive control. […] Data is expressed as mean ± SEM of each group with n = 6–12. […]

Question: Which Ki [1] does the source give for c1cc(CC2CCOCC2)n2nc(Nc3ccc4c(NC5CCOCC5)n[nH]c4c3)nc2c1 [CC-509, [3-(2H-3,4,5,6-tetrahydropyran-4-ylamino)(1H-indazol-6-yl)][5-(2H-3,4,5,6-tetrahydropyran-4-ylmethyl)(2H-1,2,4-triazolo[1,5-a]pyridin-2-yl)]amine] here?
Answer: Its Ki is 0.018 µM.

Question: And the “mode of inhibition with respect to the Syk ATP binding site” value ([1]; based on enzyme kinetics)?
Answer: The value was “mixed competitive inhibitor”.

Question: And the remaining activity at 3 µM [2]?
Answer: The remaining activity at 3 µM was 73%.

Question: And the remaining activity at 3 µM [3]?
Answer: The remaining activity at 3 µM was 98%.

Question: What about the remaining activity at 3 µM [4] of the same compound?
Answer: The remaining activity at 3 µM was 95%.

Question: What about the remaining activity at 3 µM [5] of the same compound?
Answer: The remaining activity at 3 µM was 98%.

Question: And the remaining activity at 3 µM [6]?
Answer: Its remaining activity at 3 µM is 81%.

Question: What about the remaining activity at 3 µM [7] of the same compound?
Answer: Its remaining activity at 3 µM is 58%.

Question: And the remaining activity at 3 µM [8]?
Answer: Its remaining activity at 3 µM is 61%.

Question: And the remaining activity at 3 µM [9]?
Answer: The remaining activity at 3 µM was 120%.

Question: What about the remaining activity at 3 µM [10] of the same compound?
Answer: The remaining activity at 3 µM was 77%.

Question: And the remaining activity at 3 µM [11]?
Answer: Its remaining activity at 3 µM is 79%.

Question: And the remaining activity at 3 µM [12]?
Answer: The remaining activity at 3 µM was 96%.

Question: And the remaining activity at 3 µM [13]?
Answer: The remaining activity at 3 µM was 105%.

Question: And the remaining activity at 3 µM [14]?
Answer: Its remaining activity at 3 µM is 102%.

Question: And the IC50 [15]?
Answer: The IC50 was 0.75 ± 0.19 µM.

— paper PMC4710522, “A Novel Triazolopyridine-Based Spleen Tyrosine Kinase Inhibitor That Arrests Joint Inflammation” (PLoS ONE, 2016)
